Values of other authors in patent US20110082200A1, “5,6,7-TRIHYDROXYHEPTANOIC ACID AND ANALOGS FOR THE TREATMENT OF OCULAR DISEASES AND DISEASES ASSOCIATED WITH HYPERPROLIFERATIVE AND ANGIOGENIC RESPONSES” (ALCON, INC., priority 2004, published 2011).

Legend:
[1] = system: neutrophils; conditions: compared with lipoxin A4
[2] = system: VEGF-induced angiogenesis; conditions: murine chronic granulomatous air pouch model
[3] = system: endothelial cell; conditions: in vitro
[4] = system: endothelial cell; conditions: in vitro; remark: listed apart in the source

SMILES | inhibition of LTB4-induced chemotaxis of neutrophils [1] | inhibition of VEGF-induced angiogenesis [2] | inhibition of VEGF-induced endothelial cell chemotaxis and proliferation [3] | inhibition of leukotriene D4-induced endothelial cell chemotaxis and proliferation [4]
COC(=O)CCC[C@H](O)[C@H](O)CO [Compound 1] | as potently as lipoxin A4 |  |  | 
CCCCC[C@H](O)[C@H](O)CO [Compound 2] | as potently as lipoxin A4 |  |  | 
O=C(O)CCC[C@H](O)[C@H](O)/C=C/C=C/C=C\C=C\[C@H](O)COc1ccc(F)cc1 [Lipoxin analog 3] |  | inhibit | inhibit | inhibit
